From the NIST ThermoML archive (doi:10.1016/j.tca.2011.10.010)

Assay: xn = mol fraction of the nth substance listed
Conditions: 101 kPa, Liquid, Vibrating tube method

C[N+](C)(C)CCO.[Cl-] [choline chloride] + OCCO
mass density [kg/m3]
Conditions | x1 = 0.28 | x1 = 0.33 | x1 = 0.36
298.15 K | 1117 | – | 1118
303.15 K | 1114.1 | 1114.6 | 1115.6
308.15 K | 1111.1 | – | 1112.2
313.15 K | 1108.2 | 1108.8 | 1109.7
318.15 K | 1105.2 | – | 1106.4
323.15 K | 1102.3 | 1103.6 | 1103.7
328.15 K | 1099.3 | – | 1100.6
333.15 K | 1096.2 | 1097.4 | 1096.8
338.15 K | 1093.4 | – | 1094.8
343.15 K | 1090.4 | 1091.6 | 1091
348.15 K | 1087.5 | – | 1089
353.15 K | 1084.7 | 1085.4 | 1087
358.15 K | 1081.6 | – | 1083.2
363.15 K | 1078.8 | 1079.1 | 1082
368.15 K | 1075.7 | – | 1077.4

C[P+](c1ccccc1)(c1ccccc1)c1ccccc1.[Br-] [methyltriphenylphosphonium bromide] + OCC(O)CO
mass density [kg/m3]
Conditions | x1 = 0.2 | x1 = 0.25 | x1 = 0.33
298.15 K | 1288.9 | 1297.6 | –
303.15 K | 1285.5 | 1294.5 | 1303
308.15 K | 1281.7 | 1290.6 | –
313.15 K | 1278 | 1287 | 1295.2
318.15 K | 1274.5 | 1283.6 | –
323.15 K | 1271 | 1280.9 | 1288.6
328.15 K | 1267.3 | 1276.6 | –
333.15 K | 1263.4 | 1273.6 | 1281.7
338.15 K | 1260.1 | 1269.6 | –
343.15 K | 1256.8 | 1266 | 1274.9
348.15 K | 1252.9 | 1262.6 | –
353.15 K | 1249.5 | 1259.3 | 1268.2
358.15 K | 1245.7 | 1255.6 | –
363.15 K | 1242.3 | 1252.4 | 1261.5
368.15 K | 1238.5 | 1248.6 | –

C[P+](c1ccccc1)(c1ccccc1)c1ccccc1.[Br-] [methyltriphenylphosphonium bromide] + OCCO
mass density [kg/m3]
Conditions | 303.15 K | 313.15 K | 323.15 K | 333.15 K | 343.15 K | 353.15 K | 363.15 K
x1 = 0.16 | 1216.3 | 1208.6 | 1202 | 1194.7 | 1187 | 1179.2 | 1172.3
x1 = 0.2 | 1229 | 1222 | 1215.1 | 1207.9 | 1200.6 | 1193.6 | 1186.4
x1 = 0.25 | 1242.4 | 1239.8 | 1232.4 | 1226 | 1218.8 | 1211.9 | 1204.5
